According to US6635802B1, “Nuclear transfer using cells cultured in serum starvation media containing apoptosis inhibitors” (The Texas A&M University System, priority 2000, dated 2003):

B1: α2-macroglobulin (protein, UniProt P01023 24-1474, looked up)
Alpha-2-macroglobulin: SVSGKPQYMVLVPSLLHTETTEKGCVLLSYLNETVTVSASLESVRGNRSLFTDLEAENDVLHCVAFAVPKSSSNEEVMFLTVQVKGPTQEFKKRTTVMVKNEDSLVFVQTDKSIYKPGQTVKFRVVSMDENFHPLNELIPLVYIQDPKGNRIAQWQSFQLEGGLKQFSFPLSSEPFQGSYKVVVQKKSGGRTEHPFTVEEFVLPKFEVQVTVPKIITILEEEMNVSVCGLYTYGKPVPGHVTVSICRKYSDASDCHGEDSQAFCEKFSGQLNSHGCFYQQVKTKVFQLKRKEYEMKLHTEAQIQEEGTVVELTGRQSSEITRTITKLSFVKVDSHFRQGIPFFGQVRLVDGKGVPIPNKVIFIRGNEANYYSNATTDEHGLVQFSINTTNVMGTSLTVRVNYKDRSPCYGYQWVSEEHEEAHHTAYLVFSPSKSFVHLEPMSHELPCGHTQTVQAHYILNGGTLLGLKKLSFYYLIMAKGGIVRTGTHGLLVKQEDMKGHFSISIPVKSDIAPVARLLIYAVLPTGDVIGDSAKYDVENCLANKVDLSFSPSQSLPASHAHLRVTAAPQSVCALRAVDQSVLLMKPDAELSASSVYNLLPEKDLTGFPGPLNDQDNEDCINRHNVYINGITYTPVSSTNEKDMYSFLEDMGLKAFTNSKIRKPKMCPQLQQYEMHGPEGLRVGFYESDVMGRGHARLVHVEEPHTETVRKYFPETWIWDLVVVNSAGVAEVGVTVPDTITEWKAGAFCLSEDAGLGISSTASLRAFQPFFVELTMPYSVIRGEAFTLKATVLNYLPKCIRVSVQLEASPAFLAVPVEKEQAPHCICANGRQTVSWAVTPKSLGNVNFTVSAEALESQELCGTEVPSVPEHGRKDTVIKPLLVEPEGLEKETTFNSLLCPSGGEVSEELSLKLPPNVVEESARASVSVLGDILGSAMQNTQNLLQMPYGCGEQNMVLFAPNIYVLDYLNETQQLTPEIKSKAIGYLNTGYQRQLNYKHYDGSYSTFGERYGRNQGNTWLTAFVLKTFAQARAYIFIDEAHITQALIWLSQRQKDNGCFRSSGSLLNNAIKGGVEDEVTLSAYITIALLEIPLTVTHPVVRNALFCLESAWKTAQEGDHGSHVYTKALLAYAFALAGNQDKRKEVLKSLNEEAVKKDNSVHWERPQKPKAPVGHFYEPQAPSAEVEMTSYVLLAYLTAQPAPTSEDLTSATNIVKWITKQQNAQGGFSSTQDTVVALHALSKYGAATFTRTGKAAQVTIQSSGTFSSKFQVDNNNRLLLQQVSLPELPGEYSMKVTGEGCVYLQTSLKYNILPEKEEFPFALGVQTLPQTCDEPKAHTSFQISLSVSYTGSRSASNMAIVDVKMVSGFIPLKPTVKMLERSNHVSRTEVSSNHVLIYLDKVSNQTLSLFFTVLQDVPVRDLKPAIVKVYDYYETDEFAIAEYNAPCSKDLGNA

Assays:
Type in all cases: cell-based
porcine PGCs = assay: Porcine PGCs plated in chambered slides in the absence of feeder layers, with or without growth factors; AP-positive cells counted; conditions: for Number of PGCs surviving in culture, in words: absence of feeder layers, 24, 48, 72 hours
Method: FIG. 8. Freshly isolated PGCs were plated in chambered slides in the absence of feeder cells and incubated in media with no protease inhibitors or antioxidants (PES), with MAC (MAC) or with NAC (NAC), either with or without growth factors (G), for 24, 48 or 72 hours. Cells were fixed, stained for alkaline phosphatase (AP) as previously described, and counted (normalized to control; left vertical axis).
After culture, colonies were stained, counted and analyzed as described above. To determine the effects of MAC and NAC on porcine PGCs, cells were exposed to those inhibitors during the first half period of culture (4-5 days) or the last half period (4-5 days), respectively. In addition, to determine the effect of MAC and NAC in the absence of feeders, cells were plated on chambered slides previously coated with 0.1% gelatin and medium with or without inhibitors in the presence or absence of growth factors. Cells were fixed, stained for AP and counted at the interval of 24, 48, and 72 hours.
Freshly isolated PGCs were plated in chambered slides in the absence of feeders and incubated in media with or without growth factors (GF) and with or without MAC and NAC. Cells were fixed, stained for AP as previously described, and counted.

[1] = test system: Bovine embryonic fibroblasts (BEF); assay: Cell cycle distribution (propidium iodide flow cytometry) of serum starved bovine embryonic fibroblasts; conditions: for Proportion of cells going into G0, in words: addition during the starvation period; for G2/M (%) / S (%): serum starvation 5 days; for G2/M (%) / S (%) / G0/G1 (%): MAC 0.7 pM, NAC 1 mM, GSH 2 mM; for G0/G1 (%): serum starvation (0.5% FBS) 5 days
Method: (§1) Bovine embryonic fibroblasts (BEF) were isolated from the fetus with 3-5 cm crown-rump length. After two or three passages, cells were plated one million cells per plate (100 mm) with growth medium (DMEM) with 2 mM L-glutamine, 0.1 mM β-mercaptoethanol and 10% FBS. After 24 hours, cells were washed with PBS 3-5 times and then serum starvation medium with 0.5% FBS was added. In addition, cells were treated with serum starvation medium containing apoptosis inhibitors such as a2-macroglobulin (0.7 pM), N-acetylcysteine (1 mM) and glutathione (2 mM). Cells were treated with serum starvation with or without apoptosis inhibitors for 5 or 10 days. Then cells were trypsinized and counted.
(§2) Cells (1×10^6) were washed in 0.15 M NaCI, fixed in 70% ethanol, and stored at −20° C. overnight or until ready to be analyzed. For analysis, cells were centrifuged, rinsed with PBS, resuspended in 500 μl of a 0.05 mg/ml propidium iodide/0.1% Triton X-100/0.2 mg/ml RNase A solution, and incubated for a minimum of 30 minutes at room temperature in the dark. Cells were analyzed by flow cytometry to determine DNA content. Modfit LT™ (Verity Software House, Topsham, Me.) was used to model the cell cycle distribution within each sample.

[2] = test system: Porcine embryonic fibroblast (PEF); assay: Cell cycle distribution (propidium iodide flow cytometry) of serum starved porcine embryonic fibroblasts; conditions: for Proportion of cells going into G0, in words: addition during the starvation period; for G0/G1 (%) / G2/M (%) / S (%): serum starvation 5 days, MAC 0.7 pM, NAC 1 mM, GSH 2 mM
Source text: Porcine embryonic fibroblast (PEF) were isolated from day 25-28 fetuses according to the methods previously described (Hogan et al., 1994). Briefly, porcine fetuses of day 25-30 (day 0=estrus) were removed from the uterus and rinsed with PBS+penicillin/streptomycin solution (PBS/PS). Head, limbs and internal organs were removed, and the carcasses were minced with razor blades or ground using a syringe head until they were the consistency of sludge. Then these were trypsinized 2-3 times using 0.25% trypsin+EDTA for 20 minutes. The supernatant fraction was removed and centrifuged to collect the cells. The cells were plated using DMEM+10% fetal bovine serum (FBS) and cultured up to 80-90% confluency before further passage.
as §1, §2

[3] = test system: Bovine embryonic fibroblasts (BEF); assay: TUNEL assay (flow cytometry) of serum starved bovine embryonic fibroblasts; conditions: MAC 0.7 pM, NAC 1 mM, GSH 2 mM; for 5-day Apoptosis (%): serum starvation 5 days, serum starved without inhibitor 15.0; for 10-day Apoptosis (%): serum starvation 10 days, serum starved without inhibitor 20.4
Method: as §1
After counting, cells were fixed and stained according to protocols with the APO-BRDU kit (Phoenix Flow Systems, San Diego, Calif.). Briefly, cells were fixed in 1% paraformaldehyde in PBS on ice for 15 minutes, washed in PBS, and fixed in 70% ethanol and stored at −20° C. until use. After removing the fixative, cells were washed twice and suspended in 50 μl of labeling solution containing Br-dUTP (bromolated deoxyuridine triphosphate) and TdT (terminal deoxynucleotidyl transferase) for 60 minutes at 37° C. TdT catalyzes the addition of Br-dUTP to the 3′-OH ends of DNA strand breaks in a template independent manner. To determine base line fluorescence, control cells were incubated without TdT. After rinsing, cells were incubated with an anti-BrdU monoclonal antibody conjugated to fluorescein for 30 minutes in the dark at room temperature; apoptotic cells which contain many free 3′-OH ends are intensely labeled, while non-apoptotic cells whose DNA is largely intact have little Br-dUTP incorporation and remain unlabeled. Following counterstaining with a propidium iodide/RNase A solution for 30 minutes in the dark, which allows simultaneous analysis of cell cycle position and apoptosis, cells were analyzed on a FACSCalibur™ flow cytometer (Becton Dickinson, San Jose, Calif.). Fluorescence emissions were measured at 582±21 nm for propidium iodide and 530±15 nm for fluorescein, without spectral compensation, after excitation at 488 nm by an argon-ion laser. For analysis, gates were set so that less than 2% of samples incubated without TdT were positive. Any event above this gate was deemed TUNEL positive for samples incubated with TdT.

| Molecule | Rescue of PGCs, in words (porcine PGCs; absence of feeder layers and of growth factors, after 72 hr of culture) | Number of PGCs surviving in culture, in words (porcine PGCs) | Proportion of cells going into G0, in words [1] | G2/M (%) [1] | S (%) [1] | G0/G1 (%) [1] | Proportion of cells going into G0, in words [2] | G0/G1 (%) [2] | G2/M (%) [2] | S (%) [2] | 5-day Apoptosis (%) [3] | 10-day Apoptosis (%) [3] |
| --- | --- | --- | --- | --- | --- | --- | --- | --- | --- | --- | --- | --- |
| CC(=O)N[C@@H](CS)C(=O)O [NAC, N-acetylcysteine] | able to rescue the PGCs | increased the number of PGCs surviving in culture | did not affect the proportion of cells going into G0 | 10% | 2% | 88% | did not affect the proportion of cells going into G0 | 95% | 3% | 2% | 1.8% | 1.1% |
| B1 |  | increased the number of PGCs surviving in culture | did not affect the proportion of cells going into G0 | 10% | 5% | 85% | did not affect the proportion of cells going into G0 | 95% | 4% | 1% | 3.9% | 4.6% |
